What was measured:
Primary Osteoporosis [1] = experiment: Clinical test of RDE on primary osteoporosis: bone density by double-energy X-ray bone density meter; assay type: in vivo, human; settings: for Bone density of collum femoris / Bone density of trigonal area of femur / Bone density of trochanteric of femur / Bone density of lumber (L2–L4): RDE 180 mg po tid, α-D3 0.5 μg po bid; for Bone density of lumber (L2–L4): n=17 per group
Method: (§1) The drugs with the following dosages and contents are used unless additional explanations.
(§2) Extracts in this present invention: capsules of preparation example 1, each capsule contains 0.18 g of effective component. Positive control medicine: α-D3, (synthesized by TEVA PHARMACEUTICALS, Israel, prepared by Sino-US Kunming BARKER NORTON PHARMACEUTICAL CO., LTD), each capsule contains 0.5 μg of effective component)
(§3) Diagnostic criteria: Comprehensive Diagnostic Grades for Primary Osteoporosis, according to the diagnostic criteria established by Specialized Committee of Osteoporosis of Chinese Association of Geriatrics. (cf. Gu-zhi-shu-song-zheng [M], p169–171, LIU Zhonghou eds. Chemical Industrial Press, Guangzhou, 1992)
(§4) According to the diagnostic criteria mentioned above, 70 cases of osteoporosis are randomly divided into treatment group with RDE and control group with α-D3. RDE is administrated 180 mg, per os, tid, for 6 months-2 period of treatment. And α-D3 is administrated 0.5 μg, per os, bid, for 6 months too.
(§5) Bone density of lumbar (L2–L4) and top-femur (collum femoris, trigonal area of femur, trochanteric of femur) is checked respectively by Double-Energy X-ray Bone Density Meter (LUNAR DPX-L DEXA bone densitometer,US). The unit is g/cm^2. And an Ultrasonic Bone Densitometer (model 2000-SYS-220, METRA Co., Israel) is employed to check the bone density of mid-portion of tibia.

Primary Osteoporosis [2] = experiment: Clinical test of RDE on primary osteoporosis: ultrasonic bone density of mid-portion of tibia; assay type: in vivo, human; settings: for ultrasonic bone density, Age matched (difference value) / ultrasonic bone density, Young adult (difference value): RDE 180 mg po tid (n=16), α-D3 0.5 μg po bid (n=15)
Method: as §1, §2, §3, §4, §5

[3] = test system: Ovariectomized (OVX) rats; experiment: Bone biomechanics (three point bending of left thighbone) in Ovariectomized (OVX) rats; assay type: in vivo, Wistar rats
Method: Observe the effect of RDE in this invention on both Tretinoin-induced and Ovariectomized (OVX) osteoporosis model in rats. […] RDE was dissolved in distilled water to a concentration of 0.47 mg/ml before administration. And administration was conducted via gastric tube. Tretinoin is manufactured by Chongqing Huabang Pharmaceuticals, Ltd. and was suspended to the concentration of 1.5% with distilled water. Control drug α-D3 was manufactured by TEVA PHARMACEUTICALS, Israel, which is solved in distilled water to the concentration of 0.03 μg/ml before using and administrated orally via gastric tube. Tretinoin-induced osteoporosis rats: sixty female […]-old, mean weight 234.85±15.32 g. Ovariectomized rats: sixty female Wistar rats, 12-week-old, mean weight 183.46±12.45 g. All the animals are obtained from the Experimental Animal Center of Chinese Military Medical Academy. Bone Biomechanics Rheometer was manufactured by Stevens Company, Great Britain (model QTS-25). X ray Bone-density-meter was manufactured by Norland Company, USA (model XR-26). The others are all obtained from market. 4. Dose Selections and Groups: • (1) Tretinoin-induced group: Sixty rats are randomly allocated to six groups (10 rats per group). Blank group: control animals received PSS/d (physiological saline solution) alone. Model group: Tretinoin is given orally 70 mg/kg/d; α-D3 group: both tretinoin and α-D3 are given orally 70 mg/kg/d and 0.002 μg/kg/d respectively; RDE low-dose group: both tretinoin and RDE are given orally 70 mg/kg/d and 54 mg/kg/d respectively; RDE medium-dose group: tretinoin 70 mg/kg/d and RDE 108 mg/kg/d; RDE high-dose group: tretinoin 70 mg/kg/d and RDE 216 mg/kg/d. • (2) Ovariectomized (OVX) rats group: Sixty rats are randomly allocated to six groups (10 rats per group). Blank group is the normal rats. All the other groups are removed amphi-ovaries. Model group received PSS only; α-D3 group: α-D3 is administrated orally 0.002 μg/kg/d; And RDE is administrated orally in the dose of 54, 108, 216 mg/kg/day to OVX rats respectively, corresponding to RDE groups of low-dose, medium-dose and high-dose. The dose administered to each animal is calculated from the individual body weight recorded at the end of each week. OVX rats groups: Both blank and model groups are given the same volume of distilled water orally, All the other groups commenced treatment according to the way mentioned above for 12 weeks after which animals are sacrificed and investigation of Bone Density and Bone-biomechanics are performed. 7. Measurements • 7.1. […] Bone biomechanics measurements: three point bending tests of left thighbone of each animal are performed; load-deformation curve is recorded to measure the biomechanics index. Experimental parameters: span 20 mm, loading velocity 10 mm/min. Bone structural mechanics parameters: breaking load, elastic load, maximum radius, elastic radius, maximum energy absorption; bone material mechanics parameters: firstly calculated the Femoral Section Inertial Moment, then computed the maximum strain, elastic strain, maximum stress, elastic stress and elastic modulus according to the formulae. [Results]

[4] = test system: Tretinoin-induced osteoporosis in rats; experiment: Bone density in Tretinoin-induced osteoporosis model in rats; assay type: in vivo, Wistar rats
Method: (§6) Observe the effect of RDE in this invention on both Tretinoin-induced and Ovariectomized (OVX) osteoporosis model in rats.
(§7) RDE was produced according to Example 1 (Per gram extract is equivalent to 66.67 g crude drugs). RDE was dissolved in distilled water to a concentration of 0.47 mg/ml before administration. And administration was conducted via gastric tube. Tretinoin is manufactured by Chongqing Huabang Pharmaceuticals, Ltd. and was suspended to the concentration of 1.5% with distilled water. Control drug α-D3 was manufactured by TEVA PHARMACEUTICALS, Israel, which is solved in distilled water to the concentration of 0.03 μg/ml before using and administrated orally via gastric tube.
(§8) Tretinoin-induced osteoporosis rats: sixty female W istar rats, 16-week-old, mean weight 234.85±15.32 g. Ovariectomized rats: sixty female Wistar rats, 12-week-old, mean weight 183.46±12.45 g. All the animals are obtained from the Experimental Animal Center of Chinese Military Medical Academy.
(§9) Bone Biomechanics Rheometer was manufactured by Stevens Company, Great Britain (model QTS-25). X ray Bone-density-meter was manufactured by Norland Company, USA (model XR-26). The others are all obtained from market.
(§10) 4. Dose Selections and Groups: • (1) Tretinoin-induced group: Sixty rats are randomly allocated to six groups (10 rats per group). Blank group: control animals received PSS/d (physiological saline solution) alone. […]
(§11) The dose administered to each animal is calculated from the individual body weight recorded at the end of each week. […]
(§12) 7. […] Bone biomechanics measurements: three point bending tests of left thighbone of each animal are performed; load-deformation curve is recorded to measure the biomechanics index. […] Bone structural mechanics parameters: breaking load, elastic load, maximum radius, elastic radius, maximum energy absorption; bone material mechanics parameters: firstly calculated the Femoral Section Inertial Moment, then computed the maximum strain, elastic strain, maximum stress, elastic stress and elastic modulus according to the formulae. […]

[5] = test system: Ovariectomized (OVX) rats; experiment: Bone density in Ovariectomized (OVX) osteoporosis model in rats; assay type: in vivo, Wistar rats
Method: as §6, §7, §8, §9, §10, §11, §12

[6] = test system: Tretinoin-induced osteoporosis in rats; experiment: Bone biomechanics (three point bending of left thighbone) in Tretinoin-induced osteoporosis rats; assay type: in vivo, Wistar rats
Method: as §6, §7, §8, §9
4. Dose Selections and Groups: • (1) Tretinoin-induced group: Sixty rats are randomly allocated to six groups (10 rats per group). Blank group: control animals received PSS/d (physiological saline solution) alone. Model group: Tretinoin is given orally 70 mg/kg/d; α-D3 group: both tretinoin and α-D3 are given orally 70 mg/kg/d and 0.002 μg/kg/d respectively; RDE low-dose group: both tretinoin and RDE are given orally 70 mg/kg/d and 54 mg/kg/d respectively; RDE medium-dose group: tretinoin 70 mg/kg/d and RDE 108 mg/kg/d; RDE high-dose group: tretinoin 70 mg/kg/d and RDE 216 mg/kg/d. • (2) Ovariectomized (OVX) rats group: Sixty rats are randomly allocated to six groups (10 rats per group). Blank group is the normal rats. All the other groups are removed amphi-ovaries. Model group received PSS only; α-D3 group: α-D3 is administrated orally 0.002 μg/kg/d; And RDE is administrated orally in the dose of 54, 108, 216 mg/kg/day to OVX rats respectively, corresponding to RDE groups of low-dose, medium-dose and high-dose.
The dose administered to each animal is calculated from the individual body weight recorded at the end of each week.
Tretinoin-induced osteoporosis groups: Blank group received PSS during the course of experiment. The other groups commenced treatment on the same day, designated study Day 1, and once-daily tretinoin orally given for 14 days, after which they stopped administrating tretinoin. Both blank and model groups are given PSS in Day 15, and α-D3 group is given α-D3, RDE groups are given the corresponding dose of RDE orally for 14 days. The final dose is given in the Day 28 before sacrificed. Investigation of Bone Density and Bone-biomechanics are performed in the Day 29.
7. Measurements • 7.1. Bone density measurements are performed on No.2–4 lumbar spines and right thighbone of each animal. • 7.2. Bone biomechanics measurements: three point bending tests of left thighbone of each animal are performed; load-deformation curve is recorded to measure the biomechanics index. Experimental parameters: span 20 mm, loading velocity 10 mm/min. Bone structural mechanics parameters: breaking load, elastic load, maximum radius, elastic radius, maximum energy absorption; bone material mechanics parameters: firstly calculated the Femoral Section Inertial Moment, then computed the maximum strain, elastic strain, maximum stress, elastic stress and elastic modulus according to the formulae. [Results]

[7] = Inventors' investigation of activity of improving osteoporosis (no method given); settings: no data or method given
[8] = OVX rats, α-D3 0.002 μg/kg/d oral 12 weeks
[9] = α-D3 0.002 μg/kg/d oral 14 days after tretinoin 70 mg/kg/d 14 days

SMILES: C=C1/C(=C\C=C2/CCC[C@]3(C)[C@@H]([C@H](C)CCCC(C)C)CC[C@@H]23)C[C@@H](O)C[C@@H]1O [α-D3]
- Bone density of collum femoris (Primary Osteoporosis [1]; Before-treatment (baseline)): 0.748 ± 0.095 g/cm^2
- Bone density of trigonal area of femur (Primary Osteoporosis [1]; Before-treatment (baseline)): 0.582 ± 0.125 g/cm^2
- Bone density of trochanteric of femur (Primary Osteoporosis [1]; Before-treatment (baseline)): 0.606 ± 0.109 g/cm^2
- Bone density of lumber (L2–L4) (Primary Osteoporosis [1]; Before-treatment (baseline)): 0.958 ± 0.180 g/cm^2
- Change of bone density of collum femoris after vs before treatment (Primary Osteoporosis [1]; after 3 and 6 months, within group): no significant difference
- Bone density of collum femoris (Primary Osteoporosis [1]; after 3 months treatment): 0.744 ± 0.100 g/cm^2
- Bone density of trigonal area of femur (Primary Osteoporosis [1]; after 3 months treatment): 0.591 ± 0.124 g/cm^2
- Bone density of trochanteric of femur (Primary Osteoporosis [1]; after 3 months treatment): 0.616 ± 0.099 g/cm^2
- Bone density of lumber (L2–L4) (Primary Osteoporosis [1]; after 3 months treatment): 0.954 ± 0.179 g/cm^2
- Change of bone density of lumber (L2–L4) after vs before treatment (Primary Osteoporosis [1]; after 3 or 6 months treatment, within group): no improvement
- Bone density of collum femoris (Primary Osteoporosis [1]; after 6 months treatment): 0.744 ± 0.093 g/cm^2
- Bone density of trigonal area of femur (Primary Osteoporosis [1]; after 6 months treatment): 0.581 ± 0.134 g/cm^2
- Bone density of trochanteric of femur (Primary Osteoporosis [1]; after 6 months treatment): 0.616 ± 0.094 g/cm^2
- Bone density of lumber (L2–L4) (Primary Osteoporosis [1]; after 6 months treatment): 0.958 ± 0.145 g/cm^2
- ultrasonic bone density, Age matched (difference value) (Primary Osteoporosis [2]; Before-treatment (baseline)): −1.433 ± 0.788 g/cm^2
- ultrasonic bone density, Young adult (difference value) (Primary Osteoporosis [2]; Before-treatment (baseline)): −1.993 ± 0.872 g/cm^2
- Speed sound, change self-compared within group (Primary Osteoporosis [2]; RDE P<0.01, α-D3 P<0.05): increase significantly
- ultrasonic bone density, Age matched (difference value) (Primary Osteoporosis [2]; after 3 months treatment): −1.386 ± 0.908 g/cm^2
- ultrasonic bone density, Young adult (difference value) (Primary Osteoporosis [2]; after 3 months treatment): −1.953 ± 1.181 g/cm^2
- ultrasonic bone density, Age matched (difference value) (Primary Osteoporosis [2]; after 6 months treatment): −0.987 ± 1.068 g/cm^2
- ultrasonic bone density, Young adult (difference value) (Primary Osteoporosis [2]; after 6 months treatment): −0.593 ± 1.209 g/cm^2
- all the bone structural mechanics indicators compared with model group ([3]; OVX rats (Table 12)): increased significantly
- Area of bone cortes [3, 8]: 4.13 ± 0.99
- Elastic load [3, 8]: 88.6 ± 12.7 N
- Elastic mould [3, 8]: 7992 ± 1132
- Elastic strain (material) [3, 8]: 0.03 ± 0.010
- Elastic stress [3, 8]: 147.2 ± 11.00 N/mm^2
- Maximum energy observation [3, 8]: 520.48 ± 108.44 N-mm^2
- Maximum load [3, 8]: 102.1 ± 2.90 N
- Maximum strain (material) [3, 8]: 0.03 ± 0.006
- Maximum strain (structural) [3, 8]: 0.96 ± 0.10 mm
- Maximum stress [3, 8]: 221.5 ± 46.50 N/mm^2
- Rigidity coefficient [3, 8]: 27508 ± 8073
- femoral bone density compared with model group ([4]; Tretinoin-induced osteoporosis rats (Table 9)): increased obviously
- Bone density Lumber spine [4, 9]: 0.135 ± 0.005 g/cm^2
- Bone density thighbone [4, 9]: 0.137 ± 0.004 g/cm^2
- femoral bone density compared with model group ([5]; OVX rats (Table 10)): increased obviously
- Bone density Lumber spine [5, 8]: 0.13 ± 0.009 g/cm^2
- Bone density thighbone [5, 8]: 0.13 ± 0.009 g/cm^2
- all the bone structural mechanics indicators compared with model group ([6]; Tretinoin-induced osteoporosis rats (Table 11)): increased significantly
- Elastic load [6, 9]: 100.40 ± 7.00 N
- Elastic strain (material) [6, 9]: 0.03 ± 0.01
- Elastic strain (structural) [6, 9]: 1.01 ± 0.14 mm
- Elastic stress [6, 9]: 177.6 ± 51.3 N/mm^2
- Maximum energy observation [6, 9]: 635.73 ± 114.46 N-mm
- Maximum load [6, 9]: 103.20 ± 3.40 N
- Maximum strain (material) [6, 9]: 0.03 ± 0.009
- Maximum strain (structural) [6, 9]: 0.98 ± 0.14 mm
- Maximum stress [6, 9]: 167.2 ± 44.5 N/mm^2
- Rigidity coefficient [6, 9]: 30561 ± 9194 N/mm^2

SMILES: C[C@@H]1O[C@@H](O[C@H]2[C@H](Oc3cc(O)c4c(c3)O[C@H](c3ccc(O)cc3)CC4=O)O[C@H](CO)[C@@H](O)[C@@H]2O)[C@H](O)[C@H](O)[C@H]1O [naringin]
- activity of improving osteoporosis [7]: has the activity of improving osteoporosis
- efficiency in improving osteoporosis relative to the active extracts [7]: lower than the active extracts

Source: patent US7122214B2, “Drynaria extractions for treating osteoporosis and their extraction process” (priority 2000, dated 2006)
